Format in all cases: functional, cell-based
One experiment relates to MCF7. Briefly: Antiproliferative against human MCF7 cells after 48 hrs by MTT assay. The note with it: MCF7, 48 h.
The subject of experiment [1] is A549. Briefly: Antiproliferative against human A549 cells after 48 hrs by MTT assay. The note with it: A549, 48 h.
A further experiment relates to HepG2. The experiment is described as follows: Antiproliferative against human HepG2 cells after 48 hrs by MTT assay. The note with it: HepG2, 48 h.
For experiment [2], the system named is A549. The experiment is described as follows: Induction of apoptosis in human A549 cells assessed as […] cleavage after 48 hrs by Western blot analysis.
The subject of experiment [3] is A549. Briefly: Cell cycle arrest in human A549 cells assessed as accumulation at G2/M phase after 48 hrs by flow cytometric analysis.
Experiment [4] concerns A549. The experiment is described as follows: Induction of reactive oxygen species generation in human A549 cells after 48 hrs by […].
The test system of experiment [5] is A549. Briefly: Cell cycle arrest in human A549 cells assessed as accumulation at G1 phase after 48 hrs by flow cytometric analysis.
Experiment [6] concerns A549. Briefly: Induction of reactive oxygen species generation in human A549 cells at 200 uM after 48 hrs by […].

The source made the active and inactive calls. The rule behind the calls is not given here.

This note sets out measurements from ChEMBL document CHEMBL3286297, “Design, synthesis and antiproliferative activity of a novel class of indole-2-carboxylate derivatives” (Eur J Med Chem, 2014).

As to `COC(=O)c1cc2c(OCC(C)C)cc(N)cc2[nH]1`, the concentration for half-maximal inhibition (IC50) in the experiment on MCF7 is 97.4 µM; in the experiment with A549 [1], 11.4 µM; with HepG2, 68.9 µM.
With `COC(=O)c1cc2c(OCC3CCCCC3)cc(N)cc2[nH]1`, the Activity entry in the experiment with A549 [2], with A549 [3], in the experiment on A549 [4] and in the experiment with A549 [5] was “Dose-dependent effect” each time. Also, the IC50 in the experiment with MCF7 turned out to be 3.78 µM; in the experiment with A549 [1] it was 3.98 µM; with HepG2, 14.5 µM.
Consider `COC(=O)c1cc2c(OCC(C)C)cccc2[nH]1`, for which the IC50 in the experiment with MCF7 is more than 200 µM; in the experiment with A549 [1], 51.4 µM; in the experiment on HepG2 it was more than 200 µM.
Take `CCOc1ccc2[nH]c(C(=O)OC)cc2c1OCC1CCCCC1`: the IC50 with MCF7 is more than 200 µM; in the experiment with A549 [1], 65.2 µM; with HepG2 it was more than 200 µM.
On to `C=CCOc1cc(N)cc2[nH]c(C(=O)OC)cc12`, for which the IC50 in the experiment with MCF7, in the experiment with A549 [1] and in the experiment with HepG2 was more than 200 µM throughout.
As for `COC(=O)c1cc2c(OCC3CCCCC3)cc(OC)cc2[nH]1`, the IC50 in the experiment on MCF7 was 81.1 µM; with A549 [1], 107 µM; with HepG2 it was more than 200 µM.
For `COC(=O)c1cc2c(OCC(C)C)cc(NC(C)=O)cc2[nH]1` the same measures were more than 200 µM, more than 200 µM and more than 200 µM.
`O=C(O)c1cc(C(=O)O)c2c(n1)C(=O)C(=O)c1cc(C(=O)O)[nH]c1-2` [PYRROLOQUINOLINE QUINONE]: the 50% inhibitory concentration (IC50) in the experiment with MCF7 is 25.5 µM; in the experiment on A549 [1], 750 µM; with HepG2 it was 45.7 µM. Further, the result with A549 [6] was Active.
As to `COC(=O)c1cc2c(OC(C)C)cccc2[nH]1`, the concentration for half-maximal inhibition (IC50) with MCF7, with A549 [1] and in the experiment on HepG2 was more than 200 µM each time.
Consider `COC(=O)c1cc2c(OCc3ccccc3)cc(N)cc2[nH]1`, for which the IC50 in the experiment with MCF7, with A549 [1] and in the experiment with HepG2 was more than 200 µM throughout.
Consider `CCCOc1cccc2[nH]c(C(=O)OC)cc12`, for which the half-maximal inhibitory concentration (IC50) in the experiment with MCF7, in the experiment on A549 [1] and in the experiment on HepG2 was more than 200 µM each time.
`CCCCOc1cccc2[nH]c(C(=O)OC)cc12`: the IC50 with MCF7 was more than 200 µM; in the experiment with A549 [1], 87.1 µM; in the experiment with HepG2 it was more than 200 µM.
Regarding `COc1cc([C@@H]2c3cc4c(cc3[C@@H](O[C@@H]3O[C@@H]5CO[C@@H](C)O[C@H]5[C@H](O)[C@H]3O)[C@H]3COC(=O)[C@H]23)OCO4)cc(OC)c1O` [ETOPOSIDE], the figures for the IC50 with MCF7, with A549 [1] and in the experiment on HepG2 were 81.1 µM, 242 µM and 13.7 µM, respectively.
The corresponding values for `COC(=O)c1cc2c(OCc3ccc(F)cc3)cc(N)cc2[nH]1` are more than 200 µM, more than 200 µM and more than 200 µM.
The corresponding values for `CCCCOc1cc(OC)cc2[nH]c(C(=O)OC)cc12` are 41.8 µM, 40.4 µM and more than 200 µM.
The corresponding values for `COC(=O)c1cc2ccc(N(C)C)cc2[nH]1` are more than 200 µM, more than 200 µM and more than 200 µM.
`COC(=O)c1cc2c(OCC3CCCCC3)cccc2[nH]1`: the IC50 in the experiment with MCF7 is 89.8 µM; in the experiment on A549 [1], 31.1 µM; in the experiment on HepG2, more than 200 µM.
The corresponding values for `CCCOc1c(OCC)ccc2[nH]c(C(=O)OC)cc12` are more than 200 µM, more than 200 µM and 63.5 µM.
For the molecule `COC(=O)c1cc2c(OCC3CCCCC3)cc(NC(C)=O)cc2[nH]1`, the half-maximal inhibitory concentration (IC50) in the experiment on MCF7, with A549 [1] and in the experiment on HepG2 was more than 200 µM each time.
On to `COC(=O)c1cc2c(OC)cccc2[nH]1`, for which the half-inhibitory concentration (IC50) in the experiment on MCF7, in the experiment with A549 [1] and with HepG2 was more than 200 µM throughout.
Turning to `CC(=O)O[C@H]1C(=O)[C@@]2(C)[C@H]([C@H](OC(=O)c3ccccc3)[C@]3(O)C[C@H](OC(=O)[C@H](O)[C@@H](NC(=O)c4ccccc4)c4ccccc4)C(C)=C1C3(C)C)[C@]1(OC(C)=O)CO[C@@H]1C[C@@H]2O` [PACLITAXEL], the IC50 was 0.0258 µM with MCF7, 1.53 µM in the experiment on A549 [1] and 0.0673 µM with HepG2.
`COC(=O)c1cc2c(O)cc(N)cc2[nH]1`: the IC50 in the experiment on MCF7, with A549 [1] and in the experiment on HepG2 was more than 200 µM throughout.
For the molecule `CCCCOc1c(OCC)ccc2[nH]c(C(=O)OC)cc12`, the IC50 is more than 200 µM in the experiment with MCF7, 102 µM in the experiment with A549 [1] and 168 µM in the experiment on HepG2.
In the case of `COC(=O)c1cc2c(OC(C)C)cc(OC)cc2[nH]1`, the Activity result in the experiment with A549 [2], with A549 [3], with A549 [4] and in the experiment on A549 [5] was “Dose-dependent effect” each time. In addition, the IC50 with MCF7 is 6.38 µM; in the experiment with A549 [1], 24.1 µM; in the experiment on HepG2, 3.8 µM.
As to `COC(=O)c1cc2ccc(N)cc2[nH]1`, the 50% inhibitory concentration (IC50) with MCF7, in the experiment with A549 [1] and with HepG2 was more than 200 µM throughout.
With `CCCOc1cc(OC)cc2[nH]c(C(=O)OC)cc12`, the half-inhibitory concentration (IC50) in the experiment on MCF7 was 18.8 µM; with A549 [1], 25.4 µM; in the experiment on HepG2, more than 200 µM.
